# Assays:
# [1] = biological target: p110 delta (Homo sapiens (Human), UniProt O00329); test: PI3K isoform inhibition assay, p110 delta (fluorescence polarization displacement); format: biochemical
# Protocol: (§1) PI3K enzymatic activity was assayed by measuring the amount of product phosphatidylinositol 3,4,5-phosphate (PIP3) formed from substrate 4,5 phosphatidylinositol 4,5-phosphate (PIP2) using a fluorescence polarization displacement assay. The decrease in fluorescence polarization of a fluorescent PIP3 probe is measured as it is displaced from a PIP3-binding protein GRP-1 detector by PI3K-catalyzed product. […] The kinase reactions were initiated by the addition of 40 ng/mL p110α/p85α, 300 ng/mL p110β/p85α, 40 ng/mL p110γ, or 40 ng/mL p110δ/p85α (Upstate Group, Millipore; Dundee, UK), and 10 μM PIP2 (Echelon Biosciences) to the wells. […] After 60 minutes of incubation at room temperature to allow equilibration of labeled and unlabeled PIP3 binding, the parallel and perpendicular components of the fluorescence emissions from each sample were measured at an excitation wavelength of 530 nm and an emission wavelength of 590 nm using an Envision fluorescent plate reader with a rhodamine filter (PerkinElmer Life and Analytical Sciences; Wellesley, Mass.). The assay is capable of detecting 0.1-2.0 μM PIP3 product. The IC50 values were obtained by fitting the dose-dependent inhibition data to a 4-parameter equation using Assay Explorer software (MDL, San Ramon, Calif.).
# The Formula I compound was serially diluted in 100% DMSO. The kinase reaction was incubated for 1 h at room temperature, and the reaction was terminated by the addition of PBS. IC50 values were subsequently determined using sigmoidal dose-response curve fit (variable slope).
# (§2) The four Class I PI 3-kinases are cloned into baculovirus vectors as follows: […]
# [2] = biological target: p110 alpha (Homo sapiens (Human), UniProt P42336); test: PI3K isoform inhibition assay, p110 alpha (for alpha/delta selectivity); details: ratio of biochemical IC50 values
# Chain of p110 alpha (P42336 whole entry, canonical isoform): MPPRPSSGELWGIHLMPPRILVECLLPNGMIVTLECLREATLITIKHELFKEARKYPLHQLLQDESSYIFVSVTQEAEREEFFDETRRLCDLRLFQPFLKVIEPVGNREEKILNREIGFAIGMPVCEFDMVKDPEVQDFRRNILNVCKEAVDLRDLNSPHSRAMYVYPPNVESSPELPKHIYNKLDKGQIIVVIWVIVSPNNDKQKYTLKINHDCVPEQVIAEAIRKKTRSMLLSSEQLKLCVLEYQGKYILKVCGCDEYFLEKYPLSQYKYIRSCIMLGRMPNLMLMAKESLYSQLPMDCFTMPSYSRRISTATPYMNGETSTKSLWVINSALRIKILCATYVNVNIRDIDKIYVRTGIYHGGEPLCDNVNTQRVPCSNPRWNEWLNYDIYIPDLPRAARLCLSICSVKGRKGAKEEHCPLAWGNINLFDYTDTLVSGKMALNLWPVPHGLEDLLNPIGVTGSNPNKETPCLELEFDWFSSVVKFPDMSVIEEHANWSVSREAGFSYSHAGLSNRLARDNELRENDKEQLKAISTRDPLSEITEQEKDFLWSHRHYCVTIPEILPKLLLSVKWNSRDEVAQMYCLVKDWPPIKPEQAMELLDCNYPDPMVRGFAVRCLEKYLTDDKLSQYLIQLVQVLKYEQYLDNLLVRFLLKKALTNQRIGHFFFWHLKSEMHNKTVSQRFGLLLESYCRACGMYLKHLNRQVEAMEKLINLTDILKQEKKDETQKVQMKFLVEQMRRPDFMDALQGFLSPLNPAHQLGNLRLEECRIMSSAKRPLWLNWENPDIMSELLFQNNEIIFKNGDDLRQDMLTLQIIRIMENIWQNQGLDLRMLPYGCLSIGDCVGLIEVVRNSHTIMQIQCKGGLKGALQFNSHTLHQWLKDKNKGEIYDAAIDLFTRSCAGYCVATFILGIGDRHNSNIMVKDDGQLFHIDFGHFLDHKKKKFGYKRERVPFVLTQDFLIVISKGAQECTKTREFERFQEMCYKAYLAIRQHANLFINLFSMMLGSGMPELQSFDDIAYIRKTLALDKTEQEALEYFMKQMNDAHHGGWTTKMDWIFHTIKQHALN
# Chain of p110 alpha (P27986 whole entry partner, canonical isoform): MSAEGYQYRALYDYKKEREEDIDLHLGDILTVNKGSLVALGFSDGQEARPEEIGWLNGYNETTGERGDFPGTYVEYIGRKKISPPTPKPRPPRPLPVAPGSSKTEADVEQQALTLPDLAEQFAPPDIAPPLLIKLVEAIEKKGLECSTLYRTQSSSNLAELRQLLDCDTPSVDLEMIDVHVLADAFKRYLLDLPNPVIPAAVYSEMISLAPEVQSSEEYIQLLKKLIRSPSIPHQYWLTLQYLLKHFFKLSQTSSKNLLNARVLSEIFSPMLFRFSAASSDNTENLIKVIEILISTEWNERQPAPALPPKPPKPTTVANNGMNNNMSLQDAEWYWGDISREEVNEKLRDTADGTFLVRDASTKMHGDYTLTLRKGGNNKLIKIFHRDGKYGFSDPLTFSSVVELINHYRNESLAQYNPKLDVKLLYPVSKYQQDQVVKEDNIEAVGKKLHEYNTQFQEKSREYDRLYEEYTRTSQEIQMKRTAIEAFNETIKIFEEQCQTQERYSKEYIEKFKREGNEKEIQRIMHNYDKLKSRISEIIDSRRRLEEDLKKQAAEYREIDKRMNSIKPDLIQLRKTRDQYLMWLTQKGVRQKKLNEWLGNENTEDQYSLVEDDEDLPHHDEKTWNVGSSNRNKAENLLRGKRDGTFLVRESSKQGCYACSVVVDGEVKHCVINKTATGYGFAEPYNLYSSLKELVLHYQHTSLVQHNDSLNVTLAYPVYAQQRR
# Protocol: as §1
# The same protocol may be used to establish IC50 values for p110α (alpha) PI3K binding.
# as §2
# Chain of p110 delta (O00329 whole entry, canonical isoform): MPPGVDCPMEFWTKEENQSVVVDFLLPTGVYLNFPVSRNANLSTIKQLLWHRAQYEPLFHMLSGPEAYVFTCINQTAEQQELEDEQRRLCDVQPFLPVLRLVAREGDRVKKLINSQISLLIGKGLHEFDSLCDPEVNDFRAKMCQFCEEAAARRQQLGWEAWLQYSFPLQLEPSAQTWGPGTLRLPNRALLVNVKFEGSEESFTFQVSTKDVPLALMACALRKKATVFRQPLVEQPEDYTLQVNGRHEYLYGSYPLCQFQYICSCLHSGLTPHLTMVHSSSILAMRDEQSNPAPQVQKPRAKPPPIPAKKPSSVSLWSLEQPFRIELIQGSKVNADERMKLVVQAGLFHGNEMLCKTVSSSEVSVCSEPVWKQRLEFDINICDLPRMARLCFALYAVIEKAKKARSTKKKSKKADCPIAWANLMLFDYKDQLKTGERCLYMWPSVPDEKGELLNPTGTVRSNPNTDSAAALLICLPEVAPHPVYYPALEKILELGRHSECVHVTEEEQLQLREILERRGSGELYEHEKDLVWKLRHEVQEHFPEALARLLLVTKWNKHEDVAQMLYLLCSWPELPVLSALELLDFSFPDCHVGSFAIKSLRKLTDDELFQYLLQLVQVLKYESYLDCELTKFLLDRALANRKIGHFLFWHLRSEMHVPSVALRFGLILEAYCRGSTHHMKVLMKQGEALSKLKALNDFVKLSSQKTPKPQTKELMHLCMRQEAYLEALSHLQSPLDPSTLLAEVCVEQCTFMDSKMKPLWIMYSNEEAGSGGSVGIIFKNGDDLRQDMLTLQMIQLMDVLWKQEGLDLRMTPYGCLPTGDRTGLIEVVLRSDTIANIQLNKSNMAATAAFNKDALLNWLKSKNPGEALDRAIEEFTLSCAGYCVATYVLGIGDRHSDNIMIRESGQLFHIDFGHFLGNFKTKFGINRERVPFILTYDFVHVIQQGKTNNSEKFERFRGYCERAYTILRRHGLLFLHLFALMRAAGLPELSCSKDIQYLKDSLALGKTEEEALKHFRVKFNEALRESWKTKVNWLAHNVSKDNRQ
# Chain of p110 delta (P27986 whole entry partner, canonical isoform): as the sequence (P27986 whole entry partner, canonical isoform) above
IC50 [1],IC50 p110 alpha/IC50 p110 delta [2],Compound
0.936 nM,75.5,"Cc1nc(-c2cn3c(n2)-c2ccc(OC4(CC5CC5)CN(C(C)C)C4)cc2OCC3)n(C(C)C)n1 [Example 283, 9-[3-(cyclopropylmethyl)-1-isopropyl-azetidin-3-yl]oxy-2-(2-isopropyl-5-methyl-1,2,4-triazol-3-yl)-5,6-dihydroimidazo[1,2-d][1,4]benzoxazepine]"
0.939 nM,53,"Cc1nc(-c2cn3c(n2)-c2ccc(-c4cnn(C)c4C4CC(N(C)C(C)C)CCO4)cc2OCC3)n(C(C)C)n1 (centres unmarked) [Example 343, N-isopropyl-2-[4-[2-(2-isopropyl-5-methyl-1,2,4-triazol-3-yl)-5,6-dihydroimidazo[1,2-d][1,4]benzoxazepin-9-yl]-2-methyl-pyrazol-3-yl]-N-methyl-tetrahydropyran-4-amine]"
1.48 nM,114,"Cc1nc(-c2cn3c(n2)-c2cc([C@@H](C)N4CCN(C(C)C)CC4)c(F)cc2OCC3)n(C(C)C)n1 [Example 338, (R)-9-fluoro-2-(1-isopropyl-3-methyl-1H-1,2,4-triazol-5-yl)-10-(1-(4-isopropylpiperazin-1-yl)ethyl)-5,6-dihydrobenzo[f]imidazo[1,2-d][1,4]oxazepine]"
0.878 nM,32.7,"Cc1nc(-c2cn3c(n2)-c2ccc(-c4cn(C)nc4C4CCCN(C(C)C)C4)cc2OCC3)n(C(C)C)n1 (centres unmarked) [Example 280, 2-(2-isopropyl-5-methyl-1,2,4-triazol-3-yl)-9-[3-(1-isopropyl-3-piperidyl)-1-methyl-pyrazol-4-yl]-5,6-dihydroimidazo[1,2-d][1,4]benzoxazepine]"
1.99 nM,212,"Cc1nc(-c2cn3c(n2)-c2cc([C@H](C)N4CCN(C(C)(C)CO)CC4)c(F)cc2OCC3)n(C(C)C)n1 [Example 350, (S)-2-(4-(1-(9-fluoro-2-(1-isopropyl-3-methyl-1H-1,2,4-triazol-5-yl)-5,6-dihydrobenzo[f]imidazo[1,2-d][1,4]oxazepin-10-yl)ethyl)piperazin-1-yl)-2-methylpropan-1-ol]"
3.34 nM,33.4,"Cc1nc(-c2cn3c(n2)-c2ccc(-c4cnn(C(C)C)c4CN4CCN(C)CC4)cc2OCC3)n(C(C)C)n1 [Example 278, 9-[1-isopropyl-5-[(4-methylpiperazin-1-yl)methyl]pyrazol-4-yl]-2-(2-isopropyl-5-methyl-1,2,4-triazol-3-yl)-5,6-dihydroimidazo[1,2-d][1,4]benzoxazepine]"
4 nM,27.8,"Cc1nc(-c2cn3c(n2)-c2ccc(-c4cnn(C(C)C)c4CN4CCN(C(C)(C)C)CC4)cc2OCC3)n(C(C)C)n1 [Example 277, 9-[5-[(4-tert-butylpiperazin-1-yl)methyl]-1-isopropyl-pyrazol-4-yl]-2-(2-isopropyl-5-methyl-1,2,4-triazol-3-yl)-5,6-dihydroimidazo[1,2-d][1,4]benzoxazepine]"
< 0.035 nM,214,"Cc1nc(-c2cn3c(n2)-c2cc(-c4ccnn4[C@H]4CCCN(C(C)C)C4)c(F)cc2OCC3)n(C(C)C)n1 [Example 316, (S)-9-fluoro-2-(1-isopropyl-3-methyl-1H-1,2,4-triazol-5-yl)-10-(1-(1-isopropylpiperidin-3-yl)-1H-pyrazol-5-yl)-5,6-dihydrobenzo[f]imidazo[1,2-d][1,4]oxazepine]"
8.67 nM,32.1,"Cc1nc(-c2cn3c(n2)-c2ccc(OC4(CC(C)C)CN(C(C)C)C4)cc2OCC3)n(C(C)C)n1 [Example 301, 9-(3-isobutyl-1-isopropyl-azetidin-3-yl)oxy-2-(2-isopropyl-5-methyl-1,2,4-triazol-3-yl)-5,6-dihydroimidazo[1,2-d][1,4]benzoxazepine]"
14 nM,17.3,"CC(C)n1ncnc1-c1cn2c(n1)-c1ccc(-c3ccccc3S(N)(=O)=O)cc1OCC2 [Example 109, 2-(2-(1-isopropyl-1H-1,2,4-triazol-5-yl)-5,6-dihydrobenzo[f]imidazo[1,2-d][1,4]oxazepin-9-yl)benzenesulfonamide]"
8.82 nM,14.3,"Cc1nc(-c2cn3c(n2)-c2cc(C(C)N4CCN(C5COC5)CC4)c(C)cc2OCC3)n(C(C)C)n1 (centres unmarked) [Example 345, 2-(2-isopropyl-5-methyl-1,2,4-triazol-3-yl)-9-methyl-10-[1-[4-(oxetan-3-yl)piperazin-1-yl]ethyl]-5,6-dihydroimidazo[1,2-d][1,4]benzoxazepine]"
0.445 nM,31.4,"Cc1nc(-c2cn3c(n2)-c2ccc(N4CCCC4CN(C)C)cc2OCC3)n(C(C)C)n1 (centres unmarked) [Example 348, 1-[1-[2-(2-isopropyl-5-methyl-1,2,4-triazol-3-yl)-5,6-dihydroimidazo[1,2-d][1,4]benzoxazepin-9-yl]pyrrolidin-2-yl]-N,N-dimethyl-methanamine]"
2.42 nM,15.9,"CC(C)n1nc(CO)nc1-c1cn2c(n1)-c1ccc(-c3ccnn3C3CCN(C)CC3)cc1OCC2 [Example 290, [1-isopropyl-5-[9-[2-(1-methyl-4-piperidyl)pyrazol-3-yl]-5,6-dihydroimidazo[1,2-d][1,4]benzoxazepin-2-yl]-1,2,4-triazol-3-yl]methanol]"
0.678 nM,13,"Cc1nc(-c2cn3c(n2)-c2cc([C@H](C)N4CCN(C(C)C)CC4)c(C)cc2OCC3)n(C(C)C)n1 [Example 332, (S)-2-(1-isopropyl-3-methyl-1H-1,2,4-triazol-5-yl)-10-(1-(4-isopropylpiperazin-1-yl)ethyl)-9-methyl-5,6-dihydrobenzo[f]imidazo[1,2-d][1,4]oxazepine]"
0.784 nM,116,"COc1cc2c(cc1[C@H](C)N1CCN(C(C)(C)C)CC1)-c1nc(-c3nc(C)nn3C(C)C)cn1CCO2 [Example 357, (S)-10-(1-(4-tert-butylpiperazin-1-yl)ethyl)-2-(1-isopropyl-3-methyl-1H-1,2,4-triazol-5-yl)-9-methoxy-5,6-dihydrobenzo[f]imidazo[1,2-d][1,4]oxazepine]"
1.56 nM,67.1,"Cc1nc(-c2cn3c(n2)-c2cc(-c4cnn(C)c4C4CCCN(C(C)C)C4)c(F)cc2OCC3)n(C(C)C)n1 (centres unmarked) [Example 358, 9-fluoro-2-(2-isopropyl-5-methyl-1,2,4-triazol-3-yl)-10-[5-(1-isopropyl-3-piperidyl)-1-methyl-pyrazol-4-yl]-5,6-dihydroimidazo[1,2-d][1,4]benzoxazepine]"
5.3 nM,11.7,"COc1cc2c(cc1[C@H](C)N1CCN(C(C)(C)C)CC1)-c1nc(-c3nc(C)nn3C(C)C)cn1CCO2 [Example 371, 10-[(1S)-1-(4-tert-butylpiperazin-1-yl)ethyl]-2-(2-isopropyl-5-methyl-1,2,4-triazol-3-yl)-9-methoxy-5,6-dihydroimidazo[1,2-d][1,4]benzoxazepine]"
0.633 nM,9.8,"Cc1nc(-c2cn3c(n2)-c2ccc(OC4(C)CNC4)cc2OCC3)n(C(C)C)n1 [Example 271, 2-(2-isopropyl-5-methyl-1,2,4-triazol-3-yl)-9-(3-methylazetidin-3-yl)oxy-5,6-dihydroimidazo[1,2-d][1,4]benzoxazepine]"
1.06 nM,92.4,"COc1cc2c(cc1[C@@H](C)N1CCN(C(C)(C)C)CC1)-c1nc(-c3nc(C)nn3C(C)C)cn1CCO2 [Example 368, 10-[(1R)-1-(4-tert-butylpiperazin-1-yl)ethyl]-2-(2-isopropyl-5-methyl-1,2,4-triazol-3-yl)-9-methoxy-5,6-dihydroimidazo[1,2-d][1,4]benzoxazepine]"
3.89 nM,20.8,"CC(C)n1nc(N)nc1-c1cn2c(n1)-c1ccc(-c3ccnn3C3CCN(C(C)(C)C)CC3)cc1OCC2 [Example 327, 5-[9-[2-(1-tert-butyl-4-piperidyl)pyrazol-3-yl]-5,6-dihydroimidazo[1,2-d][1,4]benzoxazepin-2-yl]-1-isopropyl-1,2,4-triazol-3-amine]"
4.21 nM,18.1,"Cc1nc(-c2cn3c(n2)-c2cc(C(C)N4CCN(CC(C)(C)O)CC4)c(C)cc2OCC3)n(C(C)C)n1 (centres unmarked) [Example 349, 1-[4-[1-[2-(2-isopropyl-5-methyl-1,2,4-triazol-3-yl)-9-methyl-5,6-dihydroimidazo[1,2-d][1,4]benzoxazepin-l0-yl]ethyl]piperazin-1-yl]-2-methyl-propan-2-ol]"
10.5 nM,17.3,"Cc1nc(-c2cn3c(n2)-c2cc([C@@H](C)N4CCN(CC(C)(C)O)CC4)c(F)cc2OCC3)n(C(C)C)n1 [Example 334, (R)-1-(4-(1-(9-fluoro-2-(1-isopropyl-3-methyl-1H-1,2,4-triazol-5-yl)-5,6-dihydrobenzo[f]imidazo[1,2-d][1,4]oxazepin-10-yl)ethyl)piperizan-1-yl)-2-methylpropan-2-ol]"

# Source: patent US9090628B2, “Benzoxazepin compounds selective for PI3K P110 delta and methods of use” (GENENTECH, INC., priority 2011, dated 2015)
